In US20240366770A1, “DEGRADATION OF BRUTON'S TYROSINE KINASE (BTK) BY CONJUGATION OF BTK INHIBITORS WITH E3 LIGASE LIGAND AND METHODS OF USE” (BeiGene Switzerland GmbH, priority 2021, published 2024) one finds DC50 and IC50 data, which are given here for twelve molecules.

One assay concerns the target T1, BTK (Homo sapiens, UniProt Q06187).
T1 construct: High control=Cell group with added DMSO and without compound, indicating microplate readings without BTK degradation; endogenous in cells; host or cells: TMD-8
Kind of assay: BTK degradation in TMD-8 cells (HTRF assay). The assay is classed as cell-based. As to conditions: 6 h treatment, IC50 (DC50) of BTK degradation. Put shortly:
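BTK remaining after compound treatment was measured by HTRF (337 nm excitation, 665/620 nm emission) in lysates of TMD-8 cells. Cells were exposed for 6 h to eight 6-fold-spaced concentrations in 0.2% DMSO. DC50 values were obtained from a Hill-equation fit (top, bottom, slope) of % inhibition.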
In general terms: TR-FRET usually uses a lanthanide donor and a delayed reading to cut background.

Another assay deals with HEK-293 cells. Put plainly: HEK-293 cytotoxicity detection (CellTiter-Glo). The class given is cell-based. As to conditions: Homo sapiens; HEK-293 cells, 72 h incubation, CellTiter-Glo luminescence, IC50 of cell proliferation inhibition; read-out: HEK293. An outline of the steps:
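Four-parameter logistic fitting of percent inhibition versus concentration gives IC50. Luminescent ATP read-out (CellTiter-Glo) after 72 h compound treatment of HEK-293 cells, 8 doses in 4-fold steps from a 5 mM 500× DMSO stock, final DMSO 0.2%.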
For orientation: Cellular ATP, detected with luciferase, serves as a proxy for viable cell number.

Usually DC50 stands for the concentration giving 50% degradation.

T1 sequence (Q06187 whole entry): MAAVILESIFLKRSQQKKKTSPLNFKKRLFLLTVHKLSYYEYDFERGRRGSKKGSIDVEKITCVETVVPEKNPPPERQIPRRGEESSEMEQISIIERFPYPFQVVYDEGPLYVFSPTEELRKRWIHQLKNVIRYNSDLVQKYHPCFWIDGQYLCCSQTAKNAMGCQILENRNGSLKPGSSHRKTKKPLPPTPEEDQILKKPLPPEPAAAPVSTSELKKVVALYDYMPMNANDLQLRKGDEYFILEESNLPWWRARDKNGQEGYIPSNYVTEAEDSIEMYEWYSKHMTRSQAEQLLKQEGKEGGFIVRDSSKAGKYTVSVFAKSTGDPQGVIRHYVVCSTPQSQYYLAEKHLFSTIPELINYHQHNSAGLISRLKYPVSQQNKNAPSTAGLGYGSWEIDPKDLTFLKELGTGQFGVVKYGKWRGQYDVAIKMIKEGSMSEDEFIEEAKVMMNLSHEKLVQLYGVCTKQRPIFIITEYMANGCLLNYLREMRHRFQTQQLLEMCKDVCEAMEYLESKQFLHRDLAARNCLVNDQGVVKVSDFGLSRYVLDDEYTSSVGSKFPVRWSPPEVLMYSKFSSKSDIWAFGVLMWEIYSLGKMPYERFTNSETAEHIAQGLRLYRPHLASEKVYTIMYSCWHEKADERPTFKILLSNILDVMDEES

With `C[C@H]1CC[C@@H](NC(=O)c2nc(C(C)(C)C)no2)CN1c1ncnc2[nH]c3cc(N4CCN(CC5CCN(c6ccc(N7CCC(=O)NC7=O)cc6)CC5)CC4)ccc3c12` [Example 129, 3-(tert-butyl)-N-((3R,6S)-1-(7-(4-((1-(4-(2,4-dioxotetrahydropyrimidin-1(2H)-yl)phenyl)piperidin-4-yl)methyl)piperazin-1-yl)-9H-pyrimido[4,5-b]indol-4-yl)-6-methylpiperidin-3-yl)-1,2,4-oxadiazole-5-carboxamide], the half-maximal degradation concentration (DC50) on BTK was > 2 µM. Besides, the IC50 in the assay with HEK-293 cells worked out at 2.04 µM.

`Cc1cc(-c2ncnc3[nH]c4ccc(C5CCN(CC6CCN(c7ccc(N8CCC(=O)NC8=O)cc7)CC6)CC5)cc4c23)ccc1CNC(=O)c1nc(C(C)(C)C)no1` [Example 2, 3-(tert-butyl)-N-(4-(6-(1-((1-(4-(2,4-dioxotetrahydropyrimidin-1(2H)-yl)phenyl)piperidin-4-yl)methyl)piperidin-4-yl)-9H-pyrimido[4,5-b]indol-4-yl)-2-methylbenzyl)-1,2,4-oxadiazole-5-carboxamide]: the DC50 on BTK is > 2 µM. Further, the IC50 with HEK-293 cells stood at 3.95 µM.

Regarding `Cc1cc(-c2ncnc3[nH]c4cc(CCN5CCN(c6ccc(N7CCC(=O)NC7=O)cc6)CC5)ccc4c23)ccc1[C@@H](C)NC(=O)c1nc(C(C)(C)C)no1` [Example 106, (R)-3-(tert-butyl)-N-(1-(4-(7-(2-(4-(4-(2,4-dioxotetrahydropyrimidin-1(2H)-yl)phenyl)piperazin-1-yl)ethyl)-9H-pyrimido[4,5-b]indol-4-yl)-2-methylphenyl)ethyl)-1,2,4-oxadiazole-5-carboxamide], the half-maximal degradation concentration (DC50) on BTK turned out to be 0.000324 µM. In addition, in the assay on HEK-293 cells, the IC50 was > 10 µM.

On BTK, `Cc1c([C@@H](C)NC(=O)c2noc(C(C)(C)C)n2)ccc(-c2ncnc3[nH]c4cc(N5CCN(CC6CCN(c7ccc(N8CCC(=O)NC8=O)cc7)CC6)CC5)ccc4c23)c1F` [Example 27, (R)-5-(tert-butyl)-N-(1-(4-(7-(4-((1-(4-(2,4-dioxotetrahydropyrimidin-1(2H)-yl)phenyl)piperidin-4-yl)methyl)piperazin-1-yl)-9H-pyrimido[4,5-b]indol-4-yl)-3-fluoro-2-methylphenyl)ethyl)-1,2,4-oxadiazole-3-carboxamide] came in with a DC50 of 0.000299 µM. Further, in the assay with HEK-293 cells, the IC50 was > 10 µM.

As for `Cc1c([C@@H](C)NC(=O)c2noc(C(C)(C)C)n2)ccc(-c2ncnc3[nH]c4cc(N5CCN(Cc6ccc7c(c6)C(C)(C)C(=O)N7C6CCC(=O)NC6=O)CC5)ccc4c23)c1F` (stereo partly drawn) [Example 86, 5-(tert-butyl)-N-((1R)-1-(4-(7-(4-((1-(2,6-dioxopiperidin-3-yl)-3,3-dimethyl-2-oxoindolin-5-yl)methyl)piperazin-1-yl)-9H-pyrimido[4,5-b]indol-4-yl)-3-fluoro-2-methylphenyl)ethyl)-1,2,4-oxadiazole-3-carboxamide], the DC50 at BTK is > 2 µM. Also, the IC50 in the assay with HEK-293 cells is > 10 µM.

On to `Cc1cc(-c2ncnc3[nH]c4cc(N5CCC6(CC5)CCN(C5CC(c7ccc([C@H]8CCC(=O)NC8=O)cc7)C5)C6)ccc4c23)ccc1[C@@H](C)NC(=O)c1nc(C(C)(C)C)no1` (stereo partly drawn) [Example 102, 3-(tert-butyl)-N—((R)-1-(4-(7-(2-(3-(4-((R)-2,6-dioxopiperidin-3-yl)phenyl)cyclobutyl)-2,8-diazaspiro[4.5]decan-8-yl)-9H-pyrimido[4,5-b]indol-4-yl)-2-methylphenyl)ethyl)-1,2,4-oxadiazole-5-carboxamide], for which the DC50 at BTK worked out at 0.00488 µM. Also, the IC50 with HEK-293 cells is 1.02 µM.

For the molecule `Cc1cc(-c2ncnc3[nH]c4cc(C5CCN(CC6CCN(c7ccc(N8CCC(=O)NC8=O)cc7)CC6)C5)ccc4c23)ccc1[C@@H](C)NC(=O)c1nc(C(C)(C)C)no1` (stereo partly drawn) [Example 12, 3-(tert-butyl)-N-((1R)-1-(4-(7-(1-((1-(4-(2,4-dioxotetrahydropyrimidin-1(2H)-yl)phenyl)piperidin-4-yl)methyl)pyrrolidin-3-yl)-9H-pyrimido[4,5-b]indol-4-yl)-2-methylphenyl)ethyl)-1,2,4-oxadiazole-5-carboxamide], half-maximal degradation on BTK (DC50) was put at 0.000613 µM. Also, the IC50 in the assay on HEK-293 cells is 3.64 µM.

On BTK, `Cc1cc2c(cc1N1CCN(CC3CCN(c4ccc(N5CCC(=O)NC5=O)cc4)CC3)CC1)[nH]c1ncnc(-c3cc(CO)c([C@@H](C)NC(=O)c4nc(C(C)(C)C)no4)cc3F)c12` [Example 40, (R)-3-(tert-butyl)-N-(1-(4-(7-(4-((1-(4-(2,4-dioxotetrahydropyrimidin-1(2H)-yl)phenyl)piperidin-4-yl)methyl)piperazin-1-yl)-6-methyl-9H-pyrimido[4,5-b]indol-4-yl)-5-fluoro-2-(hydroxymethyl)phenyl)ethyl)-1,2,4-oxadiazole-5-carboxamide] returned a DC50 of 0.00212 µM. The IC50 with HEK-293 cells is > 10 µM.

Take `Cc1cc(-c2ncnc3[nH]c4cc([C@H]5CCN(CC6CCN(c7ccc(N8CCC(=O)NC8=O)cc7)CC6)C5)ccc4c23)ccc1[C@@H](C)NC(=O)c1nc(C(C)(C)C)no1` [Example 14, 3-(tert-butyl)-N—((R)-1-(4-(7-((R)-1-((1-(4-(2,4-dioxotetrahydropyrimidin-1(2H)-yl)phenyl)piperidin-4-yl)methyl)pyrrolidin-3-yl)-9H-pyrimido[4,5-b]indol-4-yl)-2-methylphenyl)ethyl)-1,2,4-oxadiazole-5-carboxamide]: at BTK, half-maximal degradation (DC50) was put at 0.000495 µM. Also, in the assay with HEK-293 cells, the IC50 was 3.34 µM.

Consider `COc1cc2c(cc1N1CCN(CC3CCN(c4ccc(N5CCC(=O)NC5=O)cc4)CC3)CC1)[nH]c1ncnc(-c3ccc([C@@H](C)NC(=O)c4nc(C(C)(C)C)no4)c(C)c3F)c12` [Example 54, (R)-3-(tert-butyl)-N-(1-(4-(7-(4-((1-(4-(2,4-dioxotetrahydropyrimidin-1(2H)-yl)phenyl)piperidin-4-yl)methyl)piperazin-1-yl)-6-methoxy-9H-pyrimido[4,5-b]indol-4-yl)-3-fluoro-2-methylphenyl)ethyl)-1,2,4-oxadiazole-5-carboxamide], for which the DC50 on BTK was determined as 0.00305 µM. Moreover, the IC50 in the assay on HEK-293 cells is > 10 µM.

At BTK, `Cc1cc(-c2ncnc3[nH]c4cc(N5CCN([C@H]6C[C@H](c7ccc(N[C@H]8CCC(=O)NC8=O)cc7)C6)CC5)ccc4c23)ccc1[C@@H](C)NC(=O)c1nc(C2(C)CC2)no1` [Example 119, N—((R)-1-(4-(7-(4-((1S,3r)-3-(4-(((S)-2,6-dioxopiperidin-3-yl)amino)phenyl)cyclobutyl)piperazin-1-yl)-9H-pyrimido[4,5-b]indol-4-yl)-2-methylphenyl)ethyl)-3-(1-methylcyclopropyl)-1,2,4-oxadiazole-5-carboxamide] had a DC50 of 0.00251 µM. Also, the IC50 in the assay on HEK-293 cells was > 10 µM.

For `Cc1cc(-c2ncnc3[nH]c4cc(C5CCN(C6CC(c7ccc([C@H]8CCC(=O)NC8=O)cc7)C6)C5)ccc4c23)ccc1[C@@H](C)NC(=O)c1nc(C(C)(C)C)no1` (stereo partly drawn) [Example 20, 3-(tert-butyl)-N-((1R)-1-(4-(7-(1-(3-(4-((R)-2,6-dioxopiperidin-3-yl)phenyl)cyclobutyl)pyrrolidin-3-yl)-9H-pyrimido[4,5-b]indol-4-yl)-2-methylphenyl)ethyl)-1,2,4-oxadiazole-5-carboxamide], the DC50 at BTK was 0.0013 µM. For the same molecule, the IC50 in the assay on HEK-293 cells was found to be 3.52 µM.
